In US11242346B2, “Mechanistic target of rapamycin signaling pathway inhibitors and therapeutic applications thereof” (SUZHOU KINTOR PHARMACEUTICALS, INC., priority 2016, dated 2022):

Experiments:
[1] = system: NCI-H23; assay: NCI60 panel growth inhibition, NCI-H23; format: cell-based; conditions: Homo sapiens
Method: (§1) Cell growth inhibitory activities against cancer cells of the present compounds were also evaluated by submitting selected the example compounds to US NCI-Chemotherapeutic Agents Repository for screening against NCI60 panel. The United States NCI-60 platform is a cancer cell platform established with 60 different human cancer cell lines from 9 different kinds of organs. This platform represents the biological characteristics of the corresponding tumor type. The drugs were screened by measuring the ability of each test compound at a range of concentrations to inhibit the growth of various tumor cells.

[2] = system: A549; assay: NCI60 panel growth inhibition, A549; format: cell-based; conditions: Homo sapiens
Method: as §1

[3] = system: MCF-7; assay: NCI60 panel growth inhibition, MCF-7; format: cell-based; conditions: Homo sapiens, MCF7
Method: as §1

[4] = system: mammalian tumor cell lines such as PC-3, LNCAP, U87, Huh-7, HepG2 and MDA-MB-468; assay: Cell proliferation/survival MTT assay in tumor cell lines; format: cell-based; conditions: 5 days (120 h) culture; cell line not specified; read-out: IC50, inhibition of tumor cell growth (MTT)
Method: The cytotoxic or cytostatic activity of Formula I-III exemplary compounds was measured by establishing proliferating mammalian tumor cell lines such as PC-3, LNCAP, U87, Huh-7, HepG2 and MDA-MB-468 in a cell culture medium, adding a test compound, culturing the cells for a period of 5 days by measuring cell viability via MTT assays. Dose response data were obtained for each test compound and the degree of inhibition of tumor cell growth was expressed as an IC50 value. […] For example. For example, compounds of example 14, 15, 46,29, 45, 49, 122, 88, 54, 55, 58, 59, 63, 64, 66, 67, 68, 113, 86, 90.
PC-3 (or U87) cells were seeded in 96-well plates at low density (at 2,000 cells per well) in media supplemented with 10% FBS (growth media) and transferred to serum-free media (1% FBS) after 24 h. Designated concentrations of drug were added to each well. The cells were incubated for 120 h. At the end of drug exposure, 20 μL/well of MTT solution was added. After 4 h at 37° C. in a humidified 5% CO2 atmosphere, the absorbance at 490 nm was recorded by using a microplate reader. IC50 was calculated using GraphPad Prism version 5 for Windows. The curves were fit using a nonlinear regression model with a log (inhibitor) versus response formula.

[5] = target: HER1 (EGFR) (Homo sapiens, UniProt P00533); assay: SelectScreen Profiling, Z'-LYTE kinase assay, HER1 (EGFR); format: biochemical; conditions: 1 μM compound, ATP at Km, read-out: HER1 inh % @1 μM
Sequence of HER1 (EGFR) (P00533 25-1210): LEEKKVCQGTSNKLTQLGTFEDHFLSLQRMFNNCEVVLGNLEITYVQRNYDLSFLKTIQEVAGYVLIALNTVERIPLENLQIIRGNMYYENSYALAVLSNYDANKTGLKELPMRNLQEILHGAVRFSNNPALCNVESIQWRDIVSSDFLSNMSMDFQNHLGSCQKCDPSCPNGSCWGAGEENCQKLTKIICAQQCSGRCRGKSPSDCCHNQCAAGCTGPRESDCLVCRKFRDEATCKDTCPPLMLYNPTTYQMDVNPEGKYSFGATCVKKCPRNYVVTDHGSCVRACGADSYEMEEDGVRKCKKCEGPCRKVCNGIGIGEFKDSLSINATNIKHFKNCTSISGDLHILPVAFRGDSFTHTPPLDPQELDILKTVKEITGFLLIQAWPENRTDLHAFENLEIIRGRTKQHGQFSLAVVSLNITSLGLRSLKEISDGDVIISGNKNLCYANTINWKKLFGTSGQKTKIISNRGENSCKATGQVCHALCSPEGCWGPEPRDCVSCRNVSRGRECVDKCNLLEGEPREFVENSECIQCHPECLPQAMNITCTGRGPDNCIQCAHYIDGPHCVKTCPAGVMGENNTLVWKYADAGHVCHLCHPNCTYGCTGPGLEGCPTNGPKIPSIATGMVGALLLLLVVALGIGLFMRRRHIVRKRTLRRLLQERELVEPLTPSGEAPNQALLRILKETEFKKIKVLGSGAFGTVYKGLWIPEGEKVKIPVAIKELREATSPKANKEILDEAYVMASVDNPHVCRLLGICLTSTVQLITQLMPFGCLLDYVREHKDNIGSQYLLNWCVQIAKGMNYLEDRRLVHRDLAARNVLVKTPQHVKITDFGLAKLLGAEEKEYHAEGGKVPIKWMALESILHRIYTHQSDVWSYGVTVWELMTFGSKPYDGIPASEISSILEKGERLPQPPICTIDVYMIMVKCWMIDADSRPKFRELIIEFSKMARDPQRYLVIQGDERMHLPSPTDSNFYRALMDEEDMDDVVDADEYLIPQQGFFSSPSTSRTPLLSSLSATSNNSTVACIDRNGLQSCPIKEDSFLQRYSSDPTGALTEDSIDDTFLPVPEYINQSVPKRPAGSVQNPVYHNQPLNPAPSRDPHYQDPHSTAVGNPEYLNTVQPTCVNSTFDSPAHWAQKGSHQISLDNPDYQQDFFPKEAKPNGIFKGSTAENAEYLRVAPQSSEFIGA
Text: (§2) Some of the example compounds were submitted to Life Technologies Corporation SelectScreen® Profiling Service to test their potency in inhibiting the kinase catalytic activities of mTOR, PI3Kα, VEGF2, FGFR1, HER1 (EGFR) and HER2. A concentration of ATP at the Km of the corresponding kinase was used for all assays. The mTOR (FRAP1), VEGF2, FGFR1, HER1 (EGFR) and HER2 assays used Z′-LYTE® technology. The PI3Kα assay used Adapta® technology. The symbol “inh %” as used herein generally refers to inhibition percentage.

[6] = system: NCI 60 human cell lines; assay: NCI60 panel growth inhibition, average over 60 cell lines; format: cell-based
Method: as §1

[7] = target: PI3Kα (Homo sapiens, UniProt P42336); assay: SelectScreen Profiling, Adapta kinase assay, PI3Kα; format: biochemical; conditions: 0.1 μM compound, ATP at Km, read-out: PI3Kα inh % @0.1 μM
Sequence of PI3Kα (P42336 whole entry): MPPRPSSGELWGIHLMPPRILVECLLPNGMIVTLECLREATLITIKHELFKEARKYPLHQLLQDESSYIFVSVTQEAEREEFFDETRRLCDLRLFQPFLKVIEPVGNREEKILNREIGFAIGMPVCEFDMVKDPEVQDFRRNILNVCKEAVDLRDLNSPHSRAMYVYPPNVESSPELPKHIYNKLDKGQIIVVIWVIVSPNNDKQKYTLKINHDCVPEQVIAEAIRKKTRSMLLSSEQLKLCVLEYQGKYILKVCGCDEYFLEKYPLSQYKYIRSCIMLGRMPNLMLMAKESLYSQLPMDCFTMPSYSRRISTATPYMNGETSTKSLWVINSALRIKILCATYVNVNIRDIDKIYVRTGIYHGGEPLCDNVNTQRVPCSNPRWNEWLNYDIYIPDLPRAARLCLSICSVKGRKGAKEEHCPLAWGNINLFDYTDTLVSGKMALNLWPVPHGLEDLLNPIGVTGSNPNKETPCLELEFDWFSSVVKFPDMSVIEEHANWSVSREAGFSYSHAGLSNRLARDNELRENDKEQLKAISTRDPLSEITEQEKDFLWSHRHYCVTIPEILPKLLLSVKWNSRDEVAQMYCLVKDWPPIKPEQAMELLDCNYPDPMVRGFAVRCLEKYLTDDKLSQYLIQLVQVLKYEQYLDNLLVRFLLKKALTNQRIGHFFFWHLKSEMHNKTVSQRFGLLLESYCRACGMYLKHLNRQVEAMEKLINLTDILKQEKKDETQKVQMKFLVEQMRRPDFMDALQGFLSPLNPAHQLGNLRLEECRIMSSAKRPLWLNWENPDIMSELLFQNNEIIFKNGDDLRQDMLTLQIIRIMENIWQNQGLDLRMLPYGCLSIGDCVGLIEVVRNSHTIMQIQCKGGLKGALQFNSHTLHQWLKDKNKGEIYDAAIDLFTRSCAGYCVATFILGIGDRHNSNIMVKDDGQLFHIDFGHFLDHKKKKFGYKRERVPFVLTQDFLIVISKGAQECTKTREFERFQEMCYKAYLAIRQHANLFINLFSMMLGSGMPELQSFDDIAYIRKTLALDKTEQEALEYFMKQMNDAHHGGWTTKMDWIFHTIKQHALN
Sequence of PI3Kα (P27986 whole entry partner): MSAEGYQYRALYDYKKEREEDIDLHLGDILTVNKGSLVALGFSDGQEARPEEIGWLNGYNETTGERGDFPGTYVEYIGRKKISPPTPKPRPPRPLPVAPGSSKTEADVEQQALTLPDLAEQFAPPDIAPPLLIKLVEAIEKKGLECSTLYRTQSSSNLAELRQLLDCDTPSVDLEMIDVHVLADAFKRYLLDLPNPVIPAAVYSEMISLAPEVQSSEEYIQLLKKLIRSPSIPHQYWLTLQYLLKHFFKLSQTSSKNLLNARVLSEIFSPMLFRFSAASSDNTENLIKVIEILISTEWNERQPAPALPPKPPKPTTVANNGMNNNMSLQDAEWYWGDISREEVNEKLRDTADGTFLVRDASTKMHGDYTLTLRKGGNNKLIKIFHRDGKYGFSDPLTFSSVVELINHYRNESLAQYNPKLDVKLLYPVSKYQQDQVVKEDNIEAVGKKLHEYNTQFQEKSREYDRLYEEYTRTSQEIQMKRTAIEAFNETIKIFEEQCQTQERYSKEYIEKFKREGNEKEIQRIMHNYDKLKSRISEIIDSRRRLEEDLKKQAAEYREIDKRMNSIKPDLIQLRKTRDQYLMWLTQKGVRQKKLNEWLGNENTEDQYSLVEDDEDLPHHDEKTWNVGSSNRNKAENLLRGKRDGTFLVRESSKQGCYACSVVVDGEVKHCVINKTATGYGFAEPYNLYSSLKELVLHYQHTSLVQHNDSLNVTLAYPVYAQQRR

[8] = system: HCT-116; assay: NCI60 panel growth inhibition, HCT-116; format: cell-based; conditions: Homo sapiens
Method: as §1

[9] = target: FGFR1 (Homo sapiens, UniProt P11362); assay: SelectScreen Profiling, Z'-LYTE kinase assay, FGFR1; format: biochemical; conditions: 1 μM compound, ATP at Km, read-out: FGFR 1 inh % @1 μM
Sequence of FGFR1 (P11362 22-822): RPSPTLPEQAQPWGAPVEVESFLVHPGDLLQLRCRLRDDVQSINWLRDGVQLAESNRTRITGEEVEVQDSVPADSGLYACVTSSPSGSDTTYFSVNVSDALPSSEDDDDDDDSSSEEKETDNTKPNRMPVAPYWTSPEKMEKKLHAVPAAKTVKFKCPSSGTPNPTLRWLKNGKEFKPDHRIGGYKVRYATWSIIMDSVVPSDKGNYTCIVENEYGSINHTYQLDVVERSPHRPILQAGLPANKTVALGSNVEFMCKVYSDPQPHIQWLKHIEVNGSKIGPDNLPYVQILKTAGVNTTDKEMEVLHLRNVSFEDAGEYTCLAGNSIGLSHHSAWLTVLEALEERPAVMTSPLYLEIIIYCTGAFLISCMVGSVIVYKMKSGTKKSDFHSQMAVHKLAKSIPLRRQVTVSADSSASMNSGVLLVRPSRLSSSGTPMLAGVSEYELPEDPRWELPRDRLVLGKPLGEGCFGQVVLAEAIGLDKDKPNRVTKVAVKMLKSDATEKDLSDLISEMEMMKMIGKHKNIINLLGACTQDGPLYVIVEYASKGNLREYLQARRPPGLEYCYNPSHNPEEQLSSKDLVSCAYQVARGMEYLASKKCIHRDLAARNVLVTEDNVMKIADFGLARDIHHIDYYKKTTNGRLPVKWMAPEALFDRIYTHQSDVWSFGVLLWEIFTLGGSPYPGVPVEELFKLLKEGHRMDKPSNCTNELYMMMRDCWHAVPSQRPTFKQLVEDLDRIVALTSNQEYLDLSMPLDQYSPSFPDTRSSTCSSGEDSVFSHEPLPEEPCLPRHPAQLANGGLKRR
Text: as §2

[10] = target: VEGF2 (Homo sapiens, UniProt P35968); assay: SelectScreen Profiling, Z'-LYTE kinase assay, VEGF2; format: biochemical; conditions: 1 μM compound, ATP at Km, read-out: VEGF 2 inh % @1 μM
Text: as §2

[11] = Rat pharmacokinetic study (IV and PO); format: in vivo; conditions: for AUC(0-t) / Cmax / MRT / clearance / half-life / Tmax / bioavailability: blood; for bioavailability: PO 10 mg/kg vs IV 5 mg/kg, read-out: Fpo (oral bioavailability)
Method: (§3) Active mTOR inhibitors in enzymatic and/or cell-based assays herein were evaluated for pharmacokinetic properties. Preferable compounds are with pharmacokinetic properties of low clearance, long half-life and/or good oral bioavailability (Fpo). In vitro, selected example compounds were evaluated for metabolic stability by incubating with human liver microsome (HLM) for 60 min. Compounds that were metabolized slower (i.e. higher % remaining) are preferred. […] The more metabolic stable example compounds in the HLM assay were further evaluated for pharmacokinetic properties in vivo. In a representative experiment, selected example compounds were dosed to rats intravenously (IV, 5 mg/kg, 30% PEG400+30% PG+1% DMSO in saline) and orally (PO, 10 mg/kg, 2.4% DMSO+0.1% Tween80 in 0.5% CMC-Na), rat blood samples were taken at designed time points after dosing and analyzed for tested drug concentrations using LC-MS/MS. Pharmacokinetic parameters were derived from the time curve of drug concentrations.

[12] = system: SKOV-3; assay: NCI60 panel growth inhibition, SKOV-3; format: cell-based; conditions: Homo sapiens, SK-OV-3
Method: as §1

[13] = system: PC-3; assay: NCI60 panel growth inhibition, PC-3; format: cell-based; conditions: Homo sapiens
Method: as §1

[14] = target: mTOR (FRAP1) (Homo sapiens, UniProt P42345); assay: SelectScreen Profiling, Z'-LYTE kinase assay, mTOR (FRAP1); format: biochemical; conditions: 0.1 μM compound, ATP at Km, read-out: mTOR inh% @0.1 μM
Text: as §2

[15] = system: NCI-H460; assay: NCI60 panel growth inhibition, NCI-H460; format: cell-based; conditions: Homo sapiens
Method: as §1

[16] = Metabolic stability in human liver microsome (HLM); format: in vitro ADME; conditions: incubation with human liver microsome for 60 min
Method: as §3

[17] = target: HER2 (Homo sapiens, UniProt P04626); assay: SelectScreen Profiling, Z'-LYTE kinase assay, HER2; format: biochemical; conditions: 1 μM compound, ATP at Km, read-out: HER2 inh % @1 μM
Sequence of HER2 (P04626 23-1255): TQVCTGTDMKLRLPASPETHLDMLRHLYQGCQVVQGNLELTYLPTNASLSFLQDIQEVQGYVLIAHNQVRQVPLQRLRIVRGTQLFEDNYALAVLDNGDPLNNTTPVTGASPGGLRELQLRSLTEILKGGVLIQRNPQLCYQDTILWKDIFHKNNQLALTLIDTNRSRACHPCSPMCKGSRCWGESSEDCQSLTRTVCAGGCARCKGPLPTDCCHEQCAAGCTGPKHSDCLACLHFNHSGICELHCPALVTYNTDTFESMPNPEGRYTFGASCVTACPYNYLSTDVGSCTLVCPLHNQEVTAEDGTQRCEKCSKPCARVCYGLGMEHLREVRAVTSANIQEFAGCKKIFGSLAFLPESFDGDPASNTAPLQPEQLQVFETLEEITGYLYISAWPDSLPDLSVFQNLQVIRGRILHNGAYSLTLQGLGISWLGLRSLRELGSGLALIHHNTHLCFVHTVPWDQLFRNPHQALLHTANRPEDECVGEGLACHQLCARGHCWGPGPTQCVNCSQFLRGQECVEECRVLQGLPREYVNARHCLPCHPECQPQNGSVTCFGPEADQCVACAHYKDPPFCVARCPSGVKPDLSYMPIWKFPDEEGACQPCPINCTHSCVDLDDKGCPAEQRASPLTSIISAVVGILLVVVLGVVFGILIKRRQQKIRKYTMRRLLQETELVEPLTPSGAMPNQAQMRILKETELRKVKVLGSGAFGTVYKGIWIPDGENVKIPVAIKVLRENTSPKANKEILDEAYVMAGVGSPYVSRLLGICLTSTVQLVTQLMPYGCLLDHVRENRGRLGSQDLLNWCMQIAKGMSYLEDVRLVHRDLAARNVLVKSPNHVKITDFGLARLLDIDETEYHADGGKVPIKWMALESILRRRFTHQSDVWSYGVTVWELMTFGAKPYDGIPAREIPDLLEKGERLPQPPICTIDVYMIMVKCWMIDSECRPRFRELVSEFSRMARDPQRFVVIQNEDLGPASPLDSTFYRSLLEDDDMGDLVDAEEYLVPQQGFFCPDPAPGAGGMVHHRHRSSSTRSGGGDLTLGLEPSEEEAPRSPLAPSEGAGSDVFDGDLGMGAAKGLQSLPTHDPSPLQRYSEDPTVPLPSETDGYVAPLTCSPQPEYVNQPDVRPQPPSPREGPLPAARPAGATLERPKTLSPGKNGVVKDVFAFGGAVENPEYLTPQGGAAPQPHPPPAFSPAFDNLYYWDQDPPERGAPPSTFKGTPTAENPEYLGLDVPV
Text: as §2

[18] = Stability noted on isolation of the compound; format: physicochemical; conditions: after Prep-TLC purification
Method: To a mixture of compound 33 (80 mg, 0.28 mmol), compound 2 (22 mg, 0.09 mmol) and 2M Na2CO3 (1.2 mL) was added dioxane (6 mL). N2 was bubbled through the solution for 1.5 minutes, at which time Pd(dppf)Cl2 (12 mg, […]) was added. The reaction was stirred at 100° C. for 1 hour under N2. After cooling to room temperature, Ethyl acetate was added and the resulting slurry was sonicated and filtered. Additional ethyl acetate was used to wash the solid. The combined organic extracts were concentrated and the crude material was purified by Prep-TLC using Petroleum ether:Ethyl acetate (3:1) affording to Example 33 (10 mg),and the compound was unstable. ^1H NMR (400 MHz, CDCl3): δ 8.83 (s, 1H), 7.68-7.64 (m, 1H), 6.74-6.78 (m, 1H), 6.70-6.73 (m, 1H), 5.53 (bs, 2H), 4.11-4.04 (m, 4H), 3.87-3.82 (m, 4H). ESI-MS (M+H)^+: 366.1

Compound | inhibition at 1 µM [5] [%] | inhibition at 0.1 µM [7] [%] | inhibition at 1 µM [9] [%] | inhibition at 1 µM [10] [%] | AUC(0-t) ([11]; IV 5 mg/kg) [ng·h/mL] | Cmax ([11]; IV 5 mg/kg) [ng/mL] | MRT ([11]; IV 5 mg/kg) [h] | clearance ([11]; IV 5 mg/kg) [mL/min/kg] | half-life ([11]; IV 5 mg/kg) [h] | inhibition at 0.1 µM [14] [%] | metabolic stability in HLM [16] | inhibition at 1 µM [17] [%] | GI50 [1] [nM] | GI50 [2] [nM] | GI50 [3] [nM] | IC50 [4] [nM] | GI50 [6] [nM] | GI50 [8] [nM] | GI50 [12] [nM] | GI50 [13] [nM] | other results
CN(C)C1CCN(C(=O)c2ccc(NC(=O)Nc3ccc(-c4nc(N5CCOCC5)c5cccn5n4)cc3)cc2)CC1 [Example 15] | -2 | 54 | 4 | 8 | 3430 | 4710 | 5.57 | 17.8 | 4.98 | 98 | metabolically stable | -7 | 123 | 54.5 | < 10 | < 500 | 76 | 65.7 | 46.3 | 25 | GI50 [15]: 67 nM
Nc1ncc(-c2nc(N3CCOCC3)c3cccn3n2)c(C(F)(F)F)n1 [Example 33] | – | – | – | – | – | – | – | – | – | – | – | – | – | – | – | – | – | – | – | – | stability of the isolated compound [18]: unstable

More lines, main results first:

inhibition at 1 µM [5] [%] | inhibition at 0.1 µM [7] [%] | inhibition at 1 µM [9] [%] | inhibition at 1 µM [10] [%] | AUC(0-t) ([11]; IV 5 mg/kg) [ng·h/mL] | Cmax ([11]; IV 5 mg/kg) [ng/mL] | MRT ([11]; IV 5 mg/kg) [h] | clearance ([11]; IV 5 mg/kg) [mL/min/kg] | half-life ([11]; IV 5 mg/kg) [h] | inhibition at 0.1 µM [14] [%] | metabolic stability in HLM [16] | inhibition at 1 µM [17] [%] | Compound | GI50 [1] [nM] | GI50 [2] [nM] | GI50 [3] [nM] | IC50 [4] [nM] | GI50 [6] [nM] | GI50 [8] [nM] | GI50 [12] [nM] | GI50 [13] [nM] | other results
-1 | 11 | 1 | 8 | 10100 | 6560 | 1.7 | 10.3 | 1.3 | 87 | metabolically stable | -8 | O=C(Nc1ccc(-c2nc(N3CCOCC3)c3cccn3n2)cc1)Nc1cccnc1 [Example 14] | 269 | 244 | 48.3 | < 500 | 120 | 41 | 98.7 | 51 | CL ([11]; PO 10 mg/kg): 30.13 mL/min/kg; AUC(0-t) ([11]; PO 10 mg/kg): 4900 ng·h/mL; Cmax ([11]; PO 10 mg/kg): 784 ng/mL; MRT ([11]; PO 10 mg/kg): 5.71 h; Tmax ([11]; PO 10 mg/kg): 1 h; half-life ([11]; PO 10 mg/kg): 3.28 h; bioavailability [11]: 22%; GI50 [15]: 142 nM
-1 | 9 | -1 | 11 | 16600 | 11900 | 1.84 | 4.83 | 1.49 | 94 | metabolically stable | -7 | O=C(NCCO)Nc1ccc(-c2nc(N3CCOCC3)c3cccn3n2)cc1 [Example 29] | – | – | – | < 500 | – | – | – | – | CL ([11]; PO 10 mg/kg): 99 mL/min/kg; AUC(0-t) ([11]; PO 10 mg/kg): 1650 ng·h/mL; Cmax ([11]; PO 10 mg/kg): 380 ng/mL; MRT ([11]; PO 10 mg/kg): 2.9 h; Tmax ([11]; PO 10 mg/kg): 2 h; half-life ([11]; PO 10 mg/kg): 1.12 h; bioavailability [11]: 5%
0 | – | -3 | 11 | 8760 | 8460 | 3.66 | 8.28 | 3.25 | 86 | metabolically stable | -6 | CN1CCN(C(=O)c2ccc(NC(=O)Nc3ccc(-c4nc(N5CCOCC5)c5cccn5n4)cc3)cc2)CC1 [Example 46] | 96.2 | 66.5 | 14.4 | < 500 | 59 | 60.2 | 26.8 | 23 | GI50 [15]: 59.7 nM
1 | 8 | 0 | -10 | 11400 | 4700 | 3.03 | 7.35 | 2.13 | 94 | metabolically stable | -1 | OCCNC(=S)Nc1ccc(-c2nc(N3C[C@H]4CC[C@@H](C3)O4)c3cccn3n2)cc1 [Example 122] | 70.3 | 110 | 26.8 | < 500 | 62 | 364 | 18.9 | 41 | CL ([11]; PO 10 mg/kg): 13.3 mL/min/kg; AUC(0-t) ([11]; PO 10 mg/kg): 11900 ng·h/mL; Cmax ([11]; PO 10 mg/kg): 1910 ng/mL; MRT ([11]; PO 10 mg/kg): 7.33 h; Tmax ([11]; PO 10 mg/kg): 0.833 h; half-life ([11]; PO 10 mg/kg): 4.72 h; bioavailability [11]: 48%; GI50 [15]: 35.9 nM
